Test results reported in patent publication US20190054054A1, “Methods reducing or preventing oxidation of high density lipoprotein (HDL)” (Amarin Pharmaceuticals Ireland Limited, priority 2017, published 2019).

Key:
HUVECs exposed to oxLDL = assay: NO and ONOO^− release from HUVECs exposed to oxLDL, nanosensors (Example 8); format: cell-based, human
Method: Human umbilical vein endothelial cells (HUVECs) were isolated into primary cultures from female donors by Clonetics (San Diego, Calif.) and purchased as proliferating cells. All cell culture donors were healthy, with no pregnancy or prenatal complications. […] The confluent cells (4 to 5×10^5 cells/35 mm dish) were placed with minimum essential medium containing 3 mM L-arginine and 0.1 mM BH4 [(6R)-5,6,7,8-tetrahydrobiopterin]. Before experimental use, the cells (from second or third passage) were rinsed twice with Tyrode-HEPES buffer with 1.8 mM CaCl2).
The omega-3 fatty acids (O3FAs) cis-5,8,11,14,17-eicosapentaenoic acid (EPA) and docosahexaenoic acid (DHA) were purchased from Sigma-Aldrich (St. Louis, Mo.) and prepared initially at 11 mM in redistilled ethanol. Primary and secondary O3FA stock solutions were prepared and stored under argon at −20° C.
The oxLDL causes eNOS uncoupling and endothelial dysfunction to reproduce disease-like conditions. 25 Venous blood from healthy normolipidemic volunteers was collected into Na-EDTA (1 mg/mL blood) vacuum tubes after a 12-hour fast. Plasma was immediately separated by centrifugation at 3,000 g for 10 minutes at 4° C.
Tris-NaCl buffer was added to the dialyzed LDL to adjust the protein concentration to 30 mg/mL. A 1-mL aliquot of 20 μM CuSO4 was added to 1 mL of dialyzed normal LDL.
Oxidation was monitored by the use of measurements of TBARS. Briefly, LDL was incubated with thiobarbituric acid (0.5 wt/vol, in H2SO4, 50 mM) for 30 minutes at 100° C. […] TBARS concentration was determined as malondialdehyde (MDA) equivalents with the use of an MDA standard curve.
Concurrent measurements of NO and ONOO^− were performed with tandem electrochemical nanosensors combined into one working unit with a total diameter of 200-400 nm. Their design was based on previously developed and chemically modified carbon-fiber technology. Each of the nanosensors was made by depositing a sensing material on the tip of a carbon fiber (length 4 to 5 μm, diameter 100-200 nm). The fibers were sealed with nonconductive epoxy and electrically connected to copper wires with conductive silver epoxy. Conductive films of polymeric Ni(II) tetrakis (3-methoxy-4-hydroxyphenyl) porphyrin and Mn(III) [2.2] paracyclophanylporphyrin were used for the NO and ONOO^− sensors, respectively.
The amperometric method (with a response time of 0.1 ms) provides a quantitative signal (current) that is directly proportional to changes (from basal levels) in NO or ONOO^− concentration. Amperometric measurements were performed with a Gamry III double-channel potentiostat. Basal NO or ONOO^− levels were measured by differential pulse voltammetry in separate experiments.
All measurements of NO and ONOO^− were performed on intact endothelial cells. The NO/ONOO^− nanosensor module was positioned 5±2 μm from the surface of each individual endothelial cell using a computer-controlled M3301 micromanipulator (x-y-z resolution of 0.2 μm) and microscope (both from World Precision Instruments, Berlin, Germany) fitted with a CD camera.
Endothelial basal media was used for all the treatments. Controls were supplied with an equivalent volume of endothelial basal media.
Data are presented as mean±S.D. for (N) separate samples or experiments. Differences between groups were analyzed using the two-tailed, Student t-test (for comparisons between only two groups) or ANOVA followed by Student-Newman-Keuls multiple comparisons post-hoc analysis (for comparisons between three or more groups). Only differences with probability values less than 0.05 were considered significant.

[1] = Glucose- and peroxidation-induced cholesterol domain formation, small angle x-ray diffraction (Example 4); conditions: 1:30 mole ratio; for effect on membrane structure as compared to control: at the start of the experiment (0 hours)
Method: Samples were shell-dried under nitrogen gas and placed under vacuum for 1 h to remove residual solvent. […] Lipid suspensions were then vortexed for 3 min at ambient temperature to form MLVs. […] Membrane lipid vesicles were oriented for x-ray diffraction analysis as described by others (e.g., Herbette et al., Biophys. […] Briefly, a 100 μL aliquot (containing 250 μg MLV) was aspirated from each sample and transferred to a Lucite® sedimentation cell fitted with an aluminum foil substrate upon which a given sample could be collected by centrifugation. Samples were then loaded into a Sorvall AH-629 swinging bucket rotor (DuPont Corp., Wilmington, Del.) and centrifuged at 35,000 g, 5° C., for 90 min. After centrifugal orientation, sample supernatants were aspirated and aluminum foil substrates, each supporting a single membrane pellet, were removed from the sedimentation cells. Sample pellets were dried for 5-10 min at ambient conditions, mounted onto curved glass supports, and placed in hermetically-sealed, brass or glass containers (for immediate analysis or temporary storage, respectively). All x-ray diffraction experiments were conducted at 20° C., 74% relative humidity. The latter was established by exposing membrane samples to saturated solutions of L-(+) tartaric acid (K2C4H4O6.½H2O). Samples were incubated at these conditions for at least 1 hour prior to experimental analysis. Oriented membrane samples were aligned at grazing incidence with respect to a collimated, mono-chromatic CuKα x-ray beam (Kα1 and Kα2 unresolved; λ=1.54 Å) produced by a Rigaku Rotaflex RU-200, high-brilliance microfocus generator (Rigaku-MSC, The Woodlands, Tex.) as previously described (Mason et al., Biophys. J., vol. 55(4), pages 769-778 (1989)). Diffraction data were collected on a one-dimensional, position-sensitive electron detector (Hecus X-ray Systems, Graz, Austria) at a sample-to-detector distance of 150 mm. […] The d-space for any given membrane multibilayer is a measurement of the unit cell periodicity of the membrane lipid bilayer (e.g., the distance from the center of one lipid bilayer to the next including surface hydration), and is calculated from Bragg's Law, h λ=2 d sin θ, where h is the diffraction order, λ is the wavelength of the x-ray radiation (1.54 Å), d is the membrane lipid bilayer unit cell periodicity, and θ is the Bragg angle equal to one-half the angle between the incident beam and scattered beam. […] Under the specific temperature and relative humidity conditions established for these experiments, the second-order, 17 Å cholesterol domain peak was well-delineated from other, neighboring cholesterol and phospholipid diffraction peaks and was thus used to quantitate relative cholesterol domain peak intensity. […]

HUVECs = assay: NO release from HUVECs incubated with agent-treated oxidized sdLDL (Example 12); format: cell-based, human; conditions: for reduction of NO release as compared to vehicle-treated, oxidized sdLDL: oxidized sdLDL pretreated with agent at 10.0 μM
Method: All samples, with the exception of non-oxidized sdLDL controls, were subjected to copper-induced oxidation for 1 hour. Human umbilical vein endothelial cells (HUVECs) were incubated with the various sdLDL samples, stimulated with calcium, and monitored for nitric oxide (NO) and peroxynitrite (ONOO^−) release using nanosensor technology.

unfractionated LDL = assay: Copper-induced oxidation of unfractionated LDL, TBARS after 2 hr (Example 6); format: biochemical, human
[2] = oxLDL 20 min, then treatment for 1 hour, EPA 10 μM, ATM 1.0 μM
[3] = treatment 'EPA + oxLDL' (Table 1)

Row | Structure (SMILES) | NO (HUVECs exposed to oxLDL; [2]) [nM] | NO/ONOO^− Ratio (HUVECs exposed to oxLDL; [2]) | ONOO^− (HUVECs exposed to oxLDL; [2]) | effect on membrane structure as compared to control ([1]; glucose 200 mg/dL) | reduction of NO release as compared to vehicle-treated, oxidized sdLDL (HUVECs) [%] | other results
1 | CC/C=C\C/C=C\C/C=C\C/C=C\C/C=C\C/C=C\CCC(=O)O [DHA, docosahexaenoic acid] | 567 ± 103 | 3.39 ± 0.72 | 167 ± 18 | – | – | –
2 | CC/C=C\C/C=C\C/C=C\C/C=C\C/C=C\CCCC(=O)O [EPA, cis-5,8,11,14,17-eicosapentaenoic acid] | 423 ± 163 | 2.24 ± 0.91 | 189 ± 25 | no appreciable effect on membrane structure | – | inhibition of relative cholesterol domain peak intensity ([1]; 96-hour time point, compared to vehicle or vitamin E): more than 99%; increase in NO release as compared to non-oxidized sdLDL treatment (HUVECs; EPA-treated, oxidized sdLDL): 23%; increase in NO release as compared to oxidized LDL treatment (HUVECs; EPA-treated, oxidized sdLDL): 53%; HUVEC NO release (HUVECs; exposure to EPA-treated (10.0 μM), oxidized sdLDL): 931 ± 59 nM; reduction of TBARS levels (unfractionated LDL; 10.0 μM, unfractionated LDL): 17%; increase in NO release in ECs exposed to oxLDL (HUVECs exposed to oxLDL; as compared to vehicle, EPA 10 μM, ATM 1.0 μM): 45%; NO (HUVECs exposed to oxLDL; [3]): 663 ± 50; NO/ONOO^− Ratio (HUVECs exposed to oxLDL; [3]): 2.68 ± 0.28; ONOO^− (HUVECs exposed to oxLDL; [3]): 247 ± 17
3 | Cc1ccc(C)c(OCCCC(C)(C)C(=O)O)c1 [gemfibrozil] | 192 ± 34 | 0.72 ± 0.16 | 266 ± 34 | – | 33 | –
4 | O=C(O)c1cccnc1 [niacin, nicotinic acid] | 431 ± 100 | 2.00 ± 0.52 | 215 ± 25 | – | 45 | –
5 | Cc1c(C)c2c(c(C)c1O)CC[C@@](C)(CCC[C@H](C)CCC[C@H](C)CCCC(C)C)O2 [vitamin E, α-tocopherol] | – | – | – | no appreciable effect on membrane structure | – | effect on cholesterol domain formation as compared to control ([1]; any experimental time point, glucose 200 mg/dL): no significant effect on cholesterol domain formation; effect on LDL oxidation (unfractionated LDL; 1.0 μM to 10.0 μM): did not inhibit LDL oxidation at any concentration
